Test system: Aβ plaques in cortex sections of Alzheimer's disease patients
Assay: Autoradiographical analysis of binding to human brain sections
Settings: F-18 labelled compound; for Autoradiographical analysis of binding to cryosections from cortex: cryosections from cortex of AD patients vs controls without Aβ plaques (HC/FTD)
From the text: Fresh frozen as well as paraffin embedded sections of the frontal lobe from Alzheimer's dementia patients, frontotemporal dementia patients and age matched controls were used for the study. Frozen sections, sliced at 18 μm thickness on a cryostate (Leica, Germany) and paraffin sections, sliced on a sliding microtom (Leica) at a thickness of 6 μm, were mounted onto glass slides (Superfrost Plus, Fa.Menzel, Braunschweig Germany). Frozen sections were allowed to adhere to the slides for several nights at −20° C. The paraffin sections were deparaffinized using routine histological methods. For binding studies sections were incubated with the F-18 labeled test compound at 10 Bq/μl diluted in 25 mM Hepes buffer, pH 7.4, 0.1% (BSA) (200-300 μl/slide) for 1.5 hour at room temperature in a humidified chamber. For blocking experiments a 1000-fold access of the unlabeled test substance was added to the incubation mixture. After hybridization, sections were washed four times with Hepes buffer, 0.1% BSA (or alternatively two times with 40% ethanol) and finally dipped two times into dest. water for 10 sec. The air-dried sections were exposed to imaging plates and signals were detected by a phosphoimager device (Fuji BAS5000).

SMILES	Autoradiographical analysis of binding to cryosections from cortex	Autoradiographical analysis of binding to paraffine-sections from cortex (paraffine-sections from cortex of AD patients vs controls without Aβ plaques (HC/FTD))
COc1ccc2nc(NC(=O)c3cc([18F])ccn3)sc2c1 [compound 2c, 4-(^18F)fluoro-N-(6-methoxy-1,3-benzothiazol-2-yl)pyridine-2-carboxamide]	Specific binding in plaque-rich regions of AD samples	
COc1ccc2nc(NC(=O)c3ccc([18F])cc3)sc2c1 [compound 1f, 4-(^18F)fluoro-N-(6-methoxy-1,3-benzothiazol-2-yl)benzamide]	Specific binding in plaque-rich regions of AD samples	
COc1ccc2nc(NC(=O)c3cccc([18F])n3)sc2c1 [compound 3c, 6-[^18F]-fluoro-N-(6-methoxy-1,3-benzothiazol-2-yl)pyridine-2-carboxamide]		Specific binding in plaque-rich regions of AD samples

Source: patent US20110243846A1, “BENZOTHIAZOLE AMIDES FOR DETECTION OF AMYLOID BETA” (priority 2008, published 2011)
